Laboratory results reported in patent publication US11679106B2, “Bromodomain inhibitor” (CELGENE QUANTICEL RESEARCH, INC., priority 2015, dated 2023).
≈ marks a conversion by molar mass, not a printed value.

Experiments:
[1] = tested on: Raji, human Burkitts lymphoma cells; assay: Cell-MTS cellular proliferation assay, Raji; format: cell-based; conditions: 168 hr incubation
Description: (§1) A colorimetric cellular proliferation assay (Cell-MTS assay) was performed to assess the ability of the heterocyclic derivative BRD4 inhibitors disclosed herein to effect the proliferation of established cancer cell lines.
(§2) Assay Principle: The Cell-MTS assay is a 7-day plate-based colorimetric assay that quantifies the amount of newly generated NADH in the presence or absence of test compound. The NADH level is used for the quantification of cancer cell proliferation.
(§3) Assay Method: Established cancer cell lines with a variety of driving mutations were obtained from American Type Culture Collection (ATCC) and routinely passaged according to ATCC protocols. For routine assay, these cells were seeded at densities that enabled ˜90% confluence after 7 days of culture. Raji, human Burkitts lymphoma cells, (cMYC) were seeded at 15,000 cells per 96-well. HL-60, human proleukemia cells, (NRAS, p16, p53, c-Myc amplified) were seeded at 5,000 cells per 96-well. NCI-H460, human non-small cell lung cancer cells, (KRAS, PIK3CA, STLK11, p16) were seeded at 3,000 cells per 96-well. Plated cells were incubated for 24 hr, and thereafter cells received an 11-point dilution of Compound 1 with final concentration ranges from 100 μM to 2.0 nM. […] IC50 values were calculated using the IDBS XLfit software package and include background subtracted OD490 values and normalization to DMSO controls. […]

[2] = PK study of plasma exposure in rat after oral HPMCAS SDD preparations; format: in vivo, female Sprague Dawley rats; conditions: female, Sprague Dawley, 10 mg/kg
Description: Spray-dried dispersions (SDD) were prepared by mixing a solution of Compound 1 in (90:10) acetone:water with hydroxypropylmethylcellulose acetate succinate M or H (HPMCAS-M or HPMCAS-H) in ratios of Compound 1:polymer of either 1:9 or 1:3, followed by spray-drying each preparation using a custom bench scale Lab Spray Dryer (BLD-35; process parameters: inlet T° 93-109° C.; outlet T° 42-43° C.; atomizing pressure 110 psi; feed rate 29 g/min; […] 450 g/min).
In order to determine the plasma exposure levels of the three SDDs prepared as described above, each of them was administered orally at 10 mg/kg (based on Compound 1) to female Sprague Dawley rats as a suspension in 0.5% MC for the 10% HPMCAS-M SDD or as a suspension in 0.5% Methocel A4M/0.5% HPMCAS-HF/20 mM Tris, pH 7.4 for the 25% HPMCAS-M and the 25% HPMCAS-H SDDs. FIG. 9 illustrates the results of this experiment.

[3] = PK study of dose proportionality in rat after oral SDD; format: in vivo, female Sprague Dawley rats; conditions: 25% Compound 1:HPMC SDD, oral 0.5% MC suspension, 10 mg/kg to 300 mg/kg
Description: (§4) The spray-dried dispersion was prepared by mixing a solution of Compound 1 in dichloromethane with hydroxypropyl methylcellulose (Methocel E5 LV) (HPMC) in a 1:3 Compound 1:polymer ratio, stirring the mixture overnight, and then spray-drying using a lab scale Buchi spray dryer.

BRD4(BD1) = biological target: T1, BRD4(BD1) (Homo sapiens, UniProt O60885); assay: In vitro enzyme inhibition assay (AlphaScreen, BRD4 / H4-tetraacetyl peptide); format: binding; conditions: BRD4(BD1) 2 nM, peptide 15 nM
T1 construct: In a 384-well ProxiPlate BRD4(BD1) (2 nM final) was combined with peptide; made in house
Description: His-tagged BRD4 was cloned, expressed, and purified to homogeneity. […] BRD4 binding and inhibition was assessed by monitoring the interaction of biotinylated H4-tetraacetyl peptide (AnaSpec, H4K5/8/12/16(Ac), biotin-labeled) with the target using the AlphaScreen technology ([…]). […] After 20 min incubation at RT, Alpha streptavidin donor beads and Nickel Chelate acceptor beads were added to a final concentration of 5 μg/mL.

[4] = PK study of plasma exposure in mouse 6 hours after oral SDD preparations; format: in vivo, female CD-1 mice; conditions: female, CD-1, mouse
Description: Spray-dried dispersions (SDD) were prepared by mixing a solution of Compound 1 in dichloromethane with either polyvinylpyrrolidone (PVP K12 PF) or hydroxypropyl methylcellulose (Methocel E5 LV) in ratios of Compound 1:polymer of either 1:1 or 1:3, resulting in four unique combinations, followed by spray-drying each preparation using a lab scale Buchi spray dryer (Buchi B290 parameters: inlet T° 80° C.; outlet T° 57° C.; aspirator 100%; nozzle air 30 mm; pump speed 25%; setup: open loop).
In order to determine the plasma exposure levels of the four SDDs prepared as described above, each of preparation was administered orally to female CD-1 mice as a suspension in 0.5% MC. FIG. 6 illustrates the results of this experiment.

[5] = tested on: NCI-H460, human non-small cell lung cancer cells; assay: Cell-MTS cellular proliferation assay, NCI-H460; format: cell-based; conditions: 168 hr incubation
Description: as §1, §2, §3

[6] = tested on: HL-60, human proleukemia cells; assay: Cell-MTS cellular proliferation assay, HL-60; format: cell-based; conditions: 168 hr incubation
Description: as §1, §2, §3

[7] = PK study of dose proportionality in dog after oral SDD; format: in vivo, male beagle dogs; conditions: 25% Compound 1:HPMC SDD, oral 0.5% MC suspension, 1 mg/kg-10 mg/kg
Description: as §4

[8] = Aqueous solubility, kinetic shake flask method; format: physicochemical; conditions: aqueous buffer, kinetic from dmso stock, pH=7.4 in 50 mM phosphate buffer
[9] = PK study of dose proportionality in rat after oral crystalline Form A; format: in vivo, female Sprague Dawley rats; conditions: oral 10, 30, 100 or 300 mg/kg, suspension in 1% Tween, 40% PEG400, 59% of 0.5% HPMC
Description: A summary of this study is illustrated in FIG. 5.

IC50 [1] [nM] | AUC(0-t) ([2]; SDD with HPMCAS-M polymer, Compound 1:polymer 1:9, suspension in 0.5% MC, read-out: mean AUC 0-24 hr) [ng·h/mL] | AUC(0-t) ([2]; pH 7.4, SDD with HPMCAS-H polymer, Compound 1:polymer 1:3, suspension in 0.5% Methocel A4M/0.5% HPMCAS-HF/20 mM Tris, pH 7.4, read-out: mean AUC 0-24 hr) [ng·h/mL] | AUC(0-t) ([2]; pH 7.4, SDD with HPMCAS-M polymer, Compound 1:polymer 1:3, suspension in 0.5% Methocel A4M/0.5% HPMCAS-HF/20 mM Tris, pH 7.4, read-out: mean AUC 0-24 hr) [ng·h/mL] | dose proportionality (AUC 0-24 hr) [3] | IC50 (BRD4(BD1)) [nM] | AUC(0-t) ([4]; SDD with HPMC polymer, Compound 1:polymer 1:1, suspension in 0.5% MC) [ng·h/mL] | AUC(0-t) ([4]; SDD with HPMC polymer, Compound 1:polymer 1:3, suspension in 0.5% MC) [ng·h/mL] | AUC(0-t) ([4]; SDD with PVP polymer, Compound 1:polymer 1:1, suspension in 0.5% MC) [ng·h/mL] | AUC(0-t) ([4]; SDD with PVP polymer, Compound 1:polymer 1:3, suspension in 0.5% MC) [ng·h/mL] | IC50 [5] [µM] | IC50 [6] [nM] | dose proportionality (AUC 0-24 hr) [7] | solubility [8] [µg/mL] | exposure levels (AUC 0-24 hr) versus dose [9] | Compound
≤ 500 | 28100 | 27500 | 24600 | approximate dose proportionality | < 500 | 10500 | 24400 | 7190 | 8870 | > 5 | ≤ 500 | Approximate dose proportionality |  |  | Cn1cc(-c2cc(S(C)(=O)=O)ccc2OCC2CC2)c2ccccc2c1=O [Compound 1, 4-[2-(cyclopropylmethoxy)-5-methylsulfonylphenyl]-2-methylisoquinolin-1-one]
 |  |  |  |  |  |  |  |  |  |  |  |  | 2.6 to 3.7 (≈ 6.78 to 9.65 µM) | non-linear exposure levels | Cn1cc(-c2cc(S(C)(=O)=O)ccc2OCC2CC2)c2ccccc2c1=O [Compound 1 Form A, 4-[2-(cyclopropylmethoxy)-5-methylsulfonylphenyl]-2-methylisoquinolin-1-one]
